Measured values: ChEMBL document CHEMBL2021855, “Hepatitis C RNA-dependent RNA polymerase inhibitors: a review of structure-activity and resistance relationships; different scaffolds and mutations” (Bioorg Med Chem, 2012)

Tests used:
Hepatitis C virus [1] = experiment: Inhibition of Hepatitis C virus genotype 1b NS5B RNA-dependent RNA polymerase M423 mutant; design: species or system Hepatitis C virus subtype 1b
Hepatitis C virus [2] = experiment: Inhibition of Hepatitis C virus genotype 1b NS5B RNA-dependent RNA polymerase; design: species or system Hepatitis C virus subtype 1b
Hepatitis C virus [3] = experiment: Antiviral activity against Hepatitis C virus assessed as inhibition of viral replication by replicon assay; type: functional, organism-based, Hepacivirus hominis
[4] = Inhibition of Hepatitis C virus NS5B RNA-dependent RNA polymerase; design: species or system Hepacivirus hominis
[5] = Competitive inhibition of Hepatitis C virus NS5B RNA-dependent RNA polymerase; design: species or system Hepacivirus hominis
Hepatitis C virus [6] = experiment: Inhibition of Hepatitis C virus genotype 1b NS5B RNA-dependent RNA polymerase P495L mutant; design: species or system Hepatitis C virus subtype 1b
Hepatitis C virus [7] = experiment: Antiviral activity against Hepatitis C virus genotype 1a assessed as inhibition of viral replication by replicon assay; type: functional, organism-based, Hepacivirus hominis; details: subtype 1a
Hepatitis C virus [8] = experiment: Antiviral activity against Hepatitis C virus genotype 1b assessed as inhibition of viral replication by replicon assay; type: functional, organism-based, Hepacivirus hominis
[9] = Half life in monkey liver microsomes; details: rhesus monkey
[10] = Cytotoxicity against human HuH7 cells; type: cell-based, Huh-7
Hepatitis C virus [11] = experiment: Antiviral activity against Hepatitis C virus genotype 1a infected in human HuH7 cells assessed as inhibition of viral replication by replicon assay; type: functional, organism-based, Hepacivirus hominis; details: subtype 1a, Huh-7
Hepatitis C virus [12] = experiment: Antiviral activity against Hepatitis C virus genotype 1b infected in human HuH7 cells assessed as inhibition of viral replication by replicon assay; type: functional, organism-based, Hepacivirus hominis; details: Huh-7
[13] = Half life in human liver microsomes
Hepatitis C virus [14] = experiment: Inhibition of Hepatitis C virus con1 NS5B RNA-dependent RNA polymerase; design: species or system Hepacivirus hominis
[15] = Inhibition of Hepatitis C virus genotype 1 NS5B RNA-dependent RNA polymerase
Hepatitis C virus [16] = experiment: Inhibition of Hepatitis C virus con1 NS5B RNA-dependent RNA polymerase C316Y mutant; design: species or system Hepacivirus hominis

In the case of `C[C@H]1CC[C@H](C(=O)N(c2cc(-c3ccccc3)sc2C(=O)O)[C@H]2CC[C@H](O)CC2)CC1`, the IC50 (Hepatitis C virus [1]) is reported as 450 nM and the IC50 (Hepatitis C virus [2]) is reported as 17 nM.

For `C[C@@]1(O)[C@H](O)[C@@H](CO)O[C@H]1n1cc(F)c2c(N)ncnc21`, the EC50 (Hepatitis C virus [3]) was 70 nM.

Work on `C[C@@]1(O)[C@H](O)[C@@H](CO)O[C@H]1n1cnc2c(=O)[nH]c(N)nc21` [2'-B-METHYL-GUANOSINE] yielded an EC50 [4] of 3500 nM.

For `[N-]=[N+]=N[C@]1(CO)O[C@@H](n2ccc(N)nc2=O)[C@H](O)[C@@H]1O` [4'-AZIDOCYTIDINE], the Ki [5] was 40 nM.

For `O=C(O)c1ccc2c(c1)nc(-c1ccc(OCc3cc(N4CCCC4=O)ccc3-c3ccc(Cl)cc3)cc1F)n2C1CCCCC1`, the IC50 (Hepatitis C virus [6]) was 1500 nM.

Molecule `O=C(O)/C=C/c1ccc(NC(=O)CNC(=O)c2ccc3c(c2)nc(-c2ccoc2)n3C2CCCCC2)cc1` has an IC50 [4] of 280 nM.

Work on `Nc1ncnc2c1ccn2[C@@H]1O[C@H](CO)C[C@H]1O` yielded an IC50 [4] of 80 nM.

In the case of `CO[C@@H]1[C@H](O)[C@@H](CO)O[C@H]1n1cnc2c(O)nc(N)nc21`, the IC50 [4] is reported as 3800 nM.

`O=C(O)/C=C/c1ccc(NC(=O)C2(NC(=O)c3ccc4c(c3)nc(-c3ccoc3)n4C3CCCCC3)CCCC2)cc1` gave an EC50 (Hepatitis C virus [3]) of 72 nM and an IC50 [4] of 95 nM.

Work on `COC[C@H]1C[C@@](Cn2cccn2)(C(=O)O)N(C(=O)c2ccc(C(C)(C)C)c(OC)c2)[C@H]1c1nccs1` [GSK-625433] yielded an EC50 (Hepatitis C virus [7]) of 290 nM and an EC50 (Hepatitis C virus [8]) of 2 nM.

For `CS(=O)(=O)Nc1ccc2c(c1)S(=O)(=O)N=C(C1=C(O)[C@@H]3[C@H]4CC[C@H](C4)[C@@H]3N(Cc3ccc(F)cc3)C1=O)N2` [SETROBUVIR], the half-life [9] was greater than 1 h, the CC50 [10] was 100000 nM and the EC50 (Hepatitis C virus [11]) was 52 nM. It also gave an EC50 (Hepatitis C virus [12]) of 3 nM and a half-life [13] greater than 1 h.

`CO[C@@H]1[C@H](O)[C@@H](CO)O[C@H]1n1ccc(N)nc1=O` gave an IC50 [4] of 1200 nM.

In the case of `CO[C@@H]1[C@H](O)[C@@H](CO)O[C@H]1n1ccc2c(O)nc(N)nc21`, the IC50 [4] is reported as 350 nM.

Molecule `CNC(=O)c1c(-c2ccc(F)cc2)oc2cc(N(CCO)S(C)(=O)=O)c(C3CC3)cc12` [NESBUVIR] has an IC50 (Hepatitis C virus [14]) of 0.8 nM, an EC50 (Hepatitis C virus [7]) of 5 nM and an IC50 [15] of 10 nM. It also gave an EC50 (Hepatitis C virus [8]) of 9 nM and an IC50 (Hepatitis C virus [16]) of 2160 nM.

With `Nc1ccn([C@@H]2O[C@H](CO)C[C@H]2O)c(=O)n1` the IC50 [4] was 80 nM.

`Nc1nc2c(ncn2[C@@H]2O[C@H](CO)C[C@H]2O)c(=O)[nH]1` showed an IC50 [4] of 80 nM.

`Nc1nc(O)c2ccn([C@@H]3O[C@H](CO)C[C@H]3O)c2n1` showed an IC50 [4] of 80 nM.
